{"source": "patent US6271384A", "about": "“Self-assembled taxo-diterpenoid nanostructures” (The Scripps Research Institute, priority 1998, dated 2001)", "key": {"tubulin": {"system": "tubulin", "assay": "Microtubule (tubulin) polymerization-depolymerization measurements", "assay_type": "biochemical", "details": "for suppression of calcium chloride promoted depolymerization: 10^-6 M, CaCl2 0.25 mM, 1.0 mM GTP, 37° C.", "method": "Tubulin polymerization-depolymerization measurements are illustrate in FIG. 3. Negative controls are shown with triangles; positive taxol controls are shown with diamonds; and taxol-2'-MPT, i.e., compound 2 is shown with dots.\nMore particularly, measurement were performed in 96 well plates at 37° C. following the protocol of R. Merlock and W. Wrasidlo (Analytical Biochemistry 1993, in press). Calcium chloride addition is indicated by the arrow. In each case, 1.0 mM GTP was used to promote the initial polymerization of tubulin. Negative control employed tubulin (1.0 mg/mL) alone, CaCl2 (0.25 mM) added after 20 minutes. Positive taxol control employed tubulin (1.0 mg/mL) with taxol (10^-6 M) and CaCl2 (0.25 mM) added after 20 minutes. The experimental taxol-2'-MPTemployed tubulin (1.0 mg/mL) with taxol-2'-MPT (10^-6) and CaCl2 (0.25 mM) added after 20 minutes. Turbidity was measured as optical density at 340 nm using a microplate reader (Molecular Devices Thermomax)."}, "human leukemia": {"system": "human leukemia", "assay": "Cytotoxicity, human leukemia (XTT)", "details": "72 hours", "experimental": "(§2) More particularly, cells were plated on 96 well plates with the following controls: no cells and toxic control (1×10^-3 M SDS). The drug was added to the first set of wells and diluted via standard dilution method from the stock. Plates were incubated at 37° C., 5% CO2 in sterile air in an humidified incubator for 72 hours. An aliquot of 50 μL of a solution of 2,3-bis(methoxy-4-nitro-5-sulfophenyl)-5-[(phenylamino)carbonyl]-1H-tetrazolium hydroxide (XTT), 1 mg mL^-1, in phosphate buffered saline (PBS, 100 mM) was added to the wells. In the presence of viable cells, this colorless clear media is enzymatically altered to give a pink coloration. The plates were read at 450 nm using a plate reader. Percentage cytotoxicity was calculated using the formula: %C=1-(OD toxin)(OD growth control)^-1 (100)."}, "cervical carcinoma": {"system": "cervical carcinoma", "assay": "Cytotoxicity, cervical carcinoma (XTT)", "details": "72 hours", "experimental": "as §2"}, "metastatic melanoma": {"system": "metastatic melanoma", "assay": "Cytotoxicity, metastatic melanoma (XTT)", "details": "72 hours", "experimental": "as §2"}, "[1]": {"assay": "Stability measurements of taxol-2'-MPT by HPLC (solid state and aqueous media)", "assay_type": "physicochemical", "method": "Due to a difference in retention time using our standard HPLC conditions (see FIG. 1) and differing ultraviolet absorption maxima (l280 /l254 =1.6 for 2 and 0.3 for 1), the stability of 2 was easily assayed by HPLC (FIG. 1). […] In phosphate buffered saline (PBS) or ammonium acetate-phosphate buffer systems of pH 6.0 to 7.3, 2 is stable at 25° C. for over 21 days. Taxol-2'-MPT (2) is, however, unstable in 5% HCl (pH 1.1) and brine.\nUnder these conditions 20% of total is recovered. More particularly, Taxol-2'-MPT (2) was dissolved in the aqueous system with the aid of sonication for five minutes. Aliquots were then removed at the times shown and partitioned into methylene chloride to quench the reaction. Samples were then analyzed using a Waters Maxima HPLC instrument equipped with an autoinjector (3.9×300 mm C18 column equipped with a precolumn. The flow rate was 1.5 mL/minute. The eluent gradient A-B extended over 30 minutes. \"A\" was 80% 80 mM ammonium acetate, pH 6.0. \"B\" was 100% methanol. An ultraviolet diode array detector was employed. The ratio of compound 2 (Rf 16.2 min.) to taxol (compound 1, Rf 16.8 min.) remaining was determined from the relative areas of the peaks after normalization with previously determined calibration curves."}, "[2]": {"assay": "Kinetics of taxol release / breakdown in plasma (HPLC)", "assay_type": "in vitro ADME, human", "details": "methylene chloride extraction, 25° C."}, "[3]": {"method": "The solubility and partition coefficient data for 2 and taxol were determined using an HPLC method.\nSolubility was found by forming a solution in water with the aid of sonication for five minutes, centrifugation of the samples, and injection of the supernatant. The values reported were normalized using calibration curves constructed for both compounds by preparing known concentrations in the range 1×10^-6 to 1×10^-3 M in methylene chloride and subjecting to HPLC analysis under the same conditions. […] Partition coefficients were determined by dissolving the compound in the organic phase, shaking the resulting solution with water for ten minutes, and analyzing each phase by HPLC as above."}, "[4]": {"assay": "Self-assembly: optical density at 340 nm, light scattering and TEM", "assay_type": "physicochemical", "text": "Transmission electron microscopy (TEM) confirmed the presence of supramolecular structures in these solutions. […] It is likely that the long term stability of these solutions is due, at least in part, to stabilization provided by this structured environment."}, "serum protein": {"system": "serum protein", "assay": "Displacement of the MPT group by serum protein and dialysis of the protein:taxol intermediate", "text": "(§1) However, the release of taxol from taxol-2'-MPT can also be catalyzed by serum protein and by proteins having nucleophilic groups. […] Dialysis of the protein:taxol intermediate indicates a dissociation period of hours or days. Displacement of the MPT group by serum proteins seems to be specific for such serum proteins. […] The precise nature of the bonding between the protein and taxol has not been characterized. Scheme 2 illustrates alternative pathways for MPT release."}, "immunoglobulins": {"system": "immunoglobulins", "assay": "Displacement of the MPT group by immunoglobulins", "text": "as §1"}, "serum albumen": {"system": "serum albumen", "assay": "Displacement of the MPT group by serum albumen", "text": "as §1"}, "non-serum proteins": {"system": "non-serum proteins", "assay": "Displacement of the MPT group by non-serum proteins", "details": "tested non-serum proteins", "text": "as §1"}, "[5]": {"system": "leukemia, ovarian, lung, and breast carcinoma cells", "assay": "Cytotoxicity against a cell line panel (XTT)", "experimental": "More particularly, cells were plated on 96 well plates with the following controls: no cells and toxic control (1×10^-3 M SDS). The drug was added to the first set of wells and diluted via standard dilution method from the stock. Plates were incubated at 37° C., 5% CO2 in sterile air in an humidified incubator for 72 hours. An aliquot of 50 μL of a solution of 2,3-bis(methoxy-4-nitro-5-sulfophenyl)-5-[(phenylamino)carbonyl]-1H-tetrazolium hydroxide (XTT), 1 mg mL^-1, in phosphate buffered saline (PBS, 100 mM) was added to the wells. In the presence of viable cells, this colorless clear media is enzymatically altered to give a pink coloration. […] Percentage cytotoxicity was calculated using the formula: %C=1-(OD toxin)(OD growth control)^-1 (100)."}, "[6]": {"system": "A549 non-small cell lung adenocarcinoma xenograft", "assay": "Efficacy in lung tumor xenograft nude mouse model", "experimental": "The tumor model was generated from an ATCC A549 non-small cell lung adenocarcinoma cell line that was maintained under the standard cell proliferation conditions (37° C., 5% carbon dioxide in sterile air). Hemocytometer counted cells suspended in Hanks medium (Gibco, Grand Island, N.Y.) were implanted S.C."}}, "note": "Where a name gives a salt, the structure may show the parent alone."}
{"molecule": "CC(=O)O[C@H]1C(=O)[C@@]2(C)[C@H]([C@H](OC(=O)c3ccccc3)[C@]3(O)C[C@H](OC(=O)[C@H](O)[C@@H](NC(=O)c4ccccc4)c4ccccc4)C(C)=C1C3(C)C)[C@]1(OC(C)=O)CO[C@@H]1C[C@@H]2O", "note": "[Taxol, taxol]", "values": [{"measurement": "suppression of calcium chloride promoted depolymerization", "setting": "tubulin", "value": "suppressed by taxol"}, {"measurement": "cytotoxicity level, human leukemia", "setting": "human leukemia", "value": "Extremely high cytotoxicity levels"}, {"measurement": "cytotoxicity level, cervical carcinoma", "setting": "cervical carcinoma", "value": "Extremely high cytotoxicity levels"}, {"measurement": "cytotoxicity level, metastatic melanoma", "setting": "metastatic melanoma", "value": "Extremely high cytotoxicity levels"}]}
{"molecule": "CC(=O)O[C@H]1C(=O)[C@@]2(C)[C@H]([C@H](OC(=O)c3ccccc3)[C@]3(O)C[C@H](OC(=O)[C@H](Oc4cccc[n+]4C)[C@@H](NC(=O)c4ccccc4)c4ccccc4)C(C)=C1C3(C)C)[C@]1(OC(C)=O)CO[C@@H]1C[C@@H]2O", "note": "[Compound 2, Taxol-2'-MPT (methylpyridinium tosylate)]", "values": [{"measurement": "stability in 5% HCl", "setting": "[1]; 5% HCl (pH 1.1)", "value": "unstable"}, {"measurement": "stability in brine", "setting": "[1]; brine", "value": "unstable"}, {"measurement": "stability in most aqueous media", "setting": "[1]; most aqueous media", "value": "remarkably stable compound in most aqueous media"}, {"measurement": "stability in phosphate buffered saline or ammonium acetate-phosphate buffer", "setting": "[1]; pH 6.0 to 7.3, 25° C.", "value": "over 21 days"}, {"measurement": "stability in aqueous media at physiological pH and ion strength", "setting": "[1]; physiological pH and ion strength", "value": "essentially completely stable"}, {"measurement": "taxol release in aqueous solutions", "setting": "[1]; sterile water, pH 6.2 phosphate buffered saline or 5% dextrose, 25° C., 11 minutes", "value": "no taxol release is observed over a period of 11 minutes"}, {"measurement": "time to complete conversion of 2 into taxol in plasma", "setting": "[2]", "value": "≤ 10", "unit": "min"}, {"measurement": "degradation during solubility and partition studies", "setting": "[3]", "value": "No degradation"}, {"measurement": "solubility in aqueous systems relative to clinically relevant dosages", "setting": "[3]", "value": "higher than the clinically relevant dosages (3 to 30 mM)"}, {"measurement": "water solubility relative to taxol", "setting": "[3]", "value": "significantly more soluble in water than the parent taxol"}, {"measurement": "critical concentration (exponential increase in optical density; critical aggregation concentration)", "setting": "[4]; OD at 340 nm", "value": 400, "unit": "µM"}, {"measurement": "diameter of helical fibrillar structures", "setting": "[4]; TEM", "value": "ca. 80 Å"}, {"measurement": "helical twist", "setting": "[4]; TEM", "value": "about 7"}, {"measurement": "length of helical fibrillar structures", "setting": "[4]; TEM", "value": "up to 800 Å"}, {"measurement": "concentration above which buffered solutions exhibit haze and diffuse scattering", "setting": "[4]; buffered solutions", "value": "greater than 1×10^-3 M"}, {"measurement": "appearance of water solutions", "setting": "[4]; water, all concentrations examined", "value": "optically clear at all concentrations examined"}, {"measurement": "suppression of calcium chloride promoted depolymerization", "setting": "tubulin", "value": "not by taxol-2'-MPT"}, {"measurement": "conversion to taxol in assay buffer", "setting": "tubulin; buffered aqueous environment of this assay", "value": "not converted to taxol"}, {"measurement": "microtubule polymerization-depolymerization profile", "setting": "tubulin; compared with GTP-saline controls and taxol", "value": "very similar to GTP-saline controls and drastically different from taxol"}, {"measurement": "binding to tubulin", "setting": "tubulin; inferred from polymerization assay", "value": "does not appear to bind to tubulin in the manner of taxol"}, {"measurement": "displacement of MPT group / formation of protein:taxol intermediate", "setting": "serum protein; contacted with serum protein", "value": "observed to displace its MPT group and form a protein:taxol intermediate"}, {"measurement": "dissociation period of protein:taxol intermediate", "setting": "serum protein; dialysis", "value": "hours or days"}, {"measurement": "displacement of MPT group by immunoglobulins", "setting": "immunoglobulins", "value": "particularly effective"}, {"measurement": "displacement of MPT group by serum albumen", "setting": "serum albumen", "value": "particularly effective"}, {"measurement": "displacement of MPT group by non-serum proteins", "setting": "non-serum proteins", "value": "seemed to lack this activity"}, {"measurement": "cytotoxicity (discussion statement)", "setting": "[5]", "value": "lack of cytotoxicity"}, {"measurement": "differential cytotoxicity profile", "setting": "[5]; 2 compared with taxol", "value": "similar, although some differences were noted"}, {"measurement": "control of tumor growth", "setting": "[6]; I.P. day 1,3, and 7, 2 23.9 mg/kg, taxol 18.0 mg/kg, preliminary data", "value": "at least comparable to that of taxol"}, {"measurement": "conversion to taxol in vivo", "setting": "[6]; inferred from xenograft results", "value": "converted rapidly to taxol in vivo"}]}
